In US20250034216A1, “STEREOSELECTIVE COVALENT LIGANDS FOR ONCOGENIC AND IMMUNOLOGICAL PROTEINS” (The Scripps Research Institute, priority 2021, published 2025):

Columns and labels:
Experiment in all cases: IA-DTB cysteine engagement
Format in all cases: binding
Settings in all cases: 22Rv1 cells, 20 μM probe, 1 h, relative to DMSO
SUPT3H_C268 = target: T1, SUPT3H_C268 (Homo sapiens, UniProt O75486)
T1 construct: endogenous in cells; host or cells: 22Rv1
T1 sequence (O75486 1-317): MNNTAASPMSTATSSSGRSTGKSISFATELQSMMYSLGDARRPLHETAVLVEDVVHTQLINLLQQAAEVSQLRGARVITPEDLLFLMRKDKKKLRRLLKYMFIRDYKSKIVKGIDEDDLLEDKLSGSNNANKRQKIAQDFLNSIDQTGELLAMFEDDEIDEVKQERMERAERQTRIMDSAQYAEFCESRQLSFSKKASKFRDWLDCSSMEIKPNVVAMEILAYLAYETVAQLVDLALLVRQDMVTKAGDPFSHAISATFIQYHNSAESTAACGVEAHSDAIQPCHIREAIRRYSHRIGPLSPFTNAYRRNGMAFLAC
Procedure, shortened: (§1)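 First, cells are exposed to electrophilic probes in situ. Next, lysates are labeled with IA-DTB (1 h, ambient temperature), reduced, alkylated and trypsin-digested. Then, IA-DTB peptides are enriched on streptavidin, TMT-labeled and analyzed, with ratios taken against DMSO channels.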

PRAF2_C34 = target: T2, PRAF2_C34 (Homo sapiens, UniProt O60831)
T2 construct: endogenous in cells; host or cells: 22Rv1
T2 sequence (O60831 1-178): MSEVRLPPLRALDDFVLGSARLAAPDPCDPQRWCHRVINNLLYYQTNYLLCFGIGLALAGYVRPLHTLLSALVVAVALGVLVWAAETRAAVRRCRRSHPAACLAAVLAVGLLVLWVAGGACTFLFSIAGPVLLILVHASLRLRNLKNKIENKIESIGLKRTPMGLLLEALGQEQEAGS
Procedure, shortened: as §1

SPATA2_C41 = target: T3, SPATA2_C41 (Homo sapiens, UniProt Q9UM82)
T3 construct: endogenous in cells; host or cells: 22Rv1
T3 sequence (Q9UM82 1-520): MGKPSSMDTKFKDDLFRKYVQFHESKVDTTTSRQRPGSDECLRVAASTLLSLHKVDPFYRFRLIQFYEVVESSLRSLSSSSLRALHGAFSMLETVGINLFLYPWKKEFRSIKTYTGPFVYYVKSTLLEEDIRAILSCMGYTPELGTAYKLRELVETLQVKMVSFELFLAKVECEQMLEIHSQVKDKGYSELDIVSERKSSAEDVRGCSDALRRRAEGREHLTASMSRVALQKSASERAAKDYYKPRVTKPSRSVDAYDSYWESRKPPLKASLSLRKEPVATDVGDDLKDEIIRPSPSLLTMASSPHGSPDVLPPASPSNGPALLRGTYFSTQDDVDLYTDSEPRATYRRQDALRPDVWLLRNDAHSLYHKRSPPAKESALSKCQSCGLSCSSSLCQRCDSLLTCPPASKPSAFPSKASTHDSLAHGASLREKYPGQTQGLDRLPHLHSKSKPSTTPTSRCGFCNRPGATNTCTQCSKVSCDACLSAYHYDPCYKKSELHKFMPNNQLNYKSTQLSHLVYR
Procedure, shortened: as §1

Q: C=CC(=O)N1C[C@@H](c2ccc(Br)cc2)[C@H]1C(=O)Nc1cccc2cccnc12 [MY-1A, (2S,3R)-1-acryloyl-3-(4-bromophenyl)-N-(quinolin-8-yl)azetidine-2-carboxamide] was tested. Which “% engagement SUPT3H_C268” value (SUPT3H_C268) did it give?
A: 27%

Q: And the “% engagement PRAF2_C34” value (PRAF2_C34)?
A: 76%

Q: What about the “% engagement SPATA2_C41” value (SPATA2_C41) of the same molecule?
A: 58%

Q: What does the source list for C=CC(=O)N1C[C@H](c2ccc(Br)cc2)[C@@H]1C(=O)Nc1cccc2cccnc12 [MY-1B, (2R,3S)-1-acryloyl-3-(4-bromophenyl)-N-(quinolin-8-yl)azetidine-2-carboxamide]?
A: % engagement SUPT3H_C268 (SUPT3H_C268): 34.5%; % engagement PRAF2_C34 (PRAF2_C34): 74%; % engagement SPATA2_C41 (SPATA2_C41): 91.75%

Q: How did the “% engagement SUPT3H_C268” value (SUPT3H_C268) turn out when C=CC(=O)N1C[C@H](c2ccc(Br)cc2)[C@H]1C(=O)Nc1cccc2cccnc12 [MY-3A, (2S,3S)-1-acryloyl-3-(4-bromophenyl)-N-(quinolin-8-yl)azetidine-2-carboxamide] was run?
A: 62.5%

Q: And the “% engagement PRAF2_C34” value (PRAF2_C34)?
A: 55.5%

Q: And the “% engagement SPATA2_C41” value (SPATA2_C41)?
A: 24.5%

Q: Which “% engagement SUPT3H_C268” value (SUPT3H_C268) does the source give for C=CC(=O)N1C[C@H](c2ccc(Br)cc2)[C@H]1C(=O)Nc1cccc2cccnc12 [MY-3B, (2S,3S)-1-acryloyl-3-(4-bromophenyl)-N-(quinolin-8-yl)azetidine-2-carboxamide] here?
A: 70.5%

Q: And the “% engagement PRAF2_C34” value (PRAF2_C34)?
A: 78.5%

Q: What about the “% engagement SPATA2_C41” value (SPATA2_C41) of the same molecule?
A: 29.5%
